Several values for one entry are separate records, joined by “and”; a condition that tells them apart may be missing. Equal values may be shown once. Toxic doses and inconclusive results are not listed.
Test system: P388 leukemia ip, CD2F1 mice, survival T/C
Assay: NCI In Vivo Anticancer Drug Screen. Data for tumor model P388 Leukemia (intraperitoneal) in CD2F1 (CDF1) mice
Conditions: endpoint: median survival time, higher = longer survival
Outline: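 Mice carrying the transplanted tumor received test compound or vehicle. Survival was recorded in each group, and the value is the treated-group measurement divided by that of the vehicle-treated control group.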

[1] = dose: 50.0 mg/kg/injection, schedule: Q01DX005 (ip), vehicle: saline with Tween-80
[2] = dose: 100.0 mg/kg/injection, schedule: Q01DX005 (ip), vehicle: saline with Tween-80
[3] = dose: 200.0 mg/kg/injection, schedule: Q01DX005 (ip), vehicle: saline with Tween-80

For `COc1ccc(-c2sc(C)nc2O)cc1`, which T/C (dose: 50.0 mg/kg/injection, schedule: Q01DX009 (ip), vehicle: saline with Tween-80) is on record?
Its T/C is 101 % of control.

What about the T/C (dose: 100.0 mg/kg/injection, schedule: Q01DX009 (ip), vehicle: saline with Tween-80) of the same compound?
Its T/C is 94 % of control.

And the T/C (dose: 200.0 mg/kg/injection, schedule: Q01DX009 (ip), vehicle: saline with Tween-80)?
Its T/C is 98 % of control.

`O=C1c2ccccc2C(=O)N1CS(=O)(=O)CN1C(=O)c2ccccc2C1=O` was tested. Which T/C (dose: 100.0 mg/kg/injection, schedule: Q04DX003 (ip), vehicle: saline) did it give?
The T/C was 97 % of control.

And the T/C (dose: 200.0 mg/kg/injection, schedule: Q04DX003 (ip), vehicle: saline)?
Its T/C is 93 % of control.

What about the T/C (dose: 400.0 mg/kg/injection, schedule: Q04DX003 (ip), vehicle: saline) of the same compound?
Its T/C is 97 % of control.

For `COC(=O)NC1CC=CCC1I` (stereo not given), which T/C (dose: 12.5 mg/kg/injection, schedule: Q01DX009 (ip), vehicle: saline) is on record?
Its T/C is 96 % of control.

And the T/C (dose: 25.0 mg/kg/injection, schedule: Q01DX009 (ip), vehicle: saline)?
The T/C was 105 % of control.

And the T/C (dose: 50.0 mg/kg/injection, schedule: Q01DX009 (ip), vehicle: saline)?
The T/C was 106 % of control.

Which T/C (dose: 100.0 mg/kg/injection, schedule: Q01DX001 (ip), vehicle: saline) does the source give for `O=c1[nH]c(=S)[nH]nc1/C=C/C=C/c1ccccc1` here?
Its T/C is 96 % of control.

What about the T/C (dose: 200.0 mg/kg/injection, schedule: Q01DX001 (ip), vehicle: saline) of the same compound?
Its T/C is 97 % of control.

And the T/C (dose: 400.0 mg/kg/injection, schedule: Q01DX001 (ip), vehicle: saline)?
Its T/C is 105 % of control.

Which T/C (dose: 0.78 mg/kg/injection, schedule: Q01DX009 (ip), vehicle: saline with Tween-80) does the source give for `CC1([CH2][Hg][Cl])Cc2ccccc2O1` (stereo not given) here?
Its T/C is 91 % of control.

And the T/C (dose: 1.56 mg/kg/injection, schedule: Q01DX009 (ip), vehicle: saline with Tween-80)?
The T/C was 95 % of control.

And the T/C (dose: 3.13 mg/kg/injection, schedule: Q01DX009 (ip), vehicle: saline with Tween-80)?
Its T/C is 86 % of control.

How did the T/C (dose: 25.0 mg/kg/injection, schedule: Q04DX003 (ip), vehicle: saline with Tween-80) turn out when `O=C1CCC(n2cc(F)c(=O)[nH]c2=O)O1` (stereo not given) was run?
The T/C was 105 % of control and 94 % of control.

And the T/C (dose: 50.0 mg/kg/injection, schedule: Q04DX003 (ip), vehicle: saline with Tween-80)?
The T/C was 108 % of control and 95 % of control.

And the T/C (dose: 100.0 mg/kg/injection, schedule: Q04DX003 (ip), vehicle: saline with Tween-80)?
Its T/C is 101 % of control and 120 % of control and 95 % of control.

What about the T/C (dose: 400.0 mg/kg/injection, schedule: Q04DX003 (ip), vehicle: saline with Tween-80) of the same compound?
The T/C was 103 % of control.

What does the source list for `O=C1CN(CCCN2c3ccccc3Sc3ccc(C(F)(F)F)cc32)CC(=O)N1`?
T/C [1]: 103 % of control; T/C [2]: 100 % of control; T/C [3]: 104 % of control

How did the T/C (dose: 1.0 mg/kg/injection, schedule: Q01DX009 (ip), vehicle: Klucel (hydroxypropylcellulose) (HPC)) turn out when `COc1ccc2c(c1O)-c1cccc3c1[C@@H](C2)N(CCCl)CC3` was run?
Its T/C is 101 % of control and 105 % of control.

And the T/C (dose: 2.0 mg/kg/injection, schedule: Q01DX009 (ip), vehicle: Klucel (hydroxypropylcellulose) (HPC))?
The T/C was 99 % of control and 101 % of control.

And the T/C (dose: 4.0 mg/kg/injection, schedule: Q01DX009 (ip), vehicle: Klucel (hydroxypropylcellulose) (HPC))?
Its T/C is 106 % of control and 113 % of control.

And the T/C (dose: 4.0 mg/kg/injection, schedule: Q01DX009 (ip), vehicle: saline)?
The T/C was 151 % of control.

And the T/C (dose: 6.25 mg/kg/injection, schedule: Q04DX003 (ip), vehicle: other)?
Its T/C is 104 % of control and 118 % of control.

What about the T/C (dose: 8.0 mg/kg/injection, schedule: Q01DX009 (ip), vehicle: Klucel (hydroxypropylcellulose) (HPC)) of the same compound?
The T/C was 106 % of control.

What about the T/C (dose: 8.0 mg/kg/injection, schedule: Q01DX009 (ip), vehicle: saline) of the same compound?
Its T/C is 114 % of control and 120 % of control.

What about the T/C (dose: 12.5 mg/kg/injection, schedule: Q04DX003 (ip), vehicle: other) of the same compound?
The T/C was 90 % of control.

What about the T/C (dose: 25.0 mg/kg/injection, schedule: Q04DX003 (ip), vehicle: other) of the same compound?
Its T/C is 116 % of control.

Which results are given for `CCCCN(CCCC)C(=O)C(C)OC(C)=O` (stereo not given)?
T/C (dose: 25.0 mg/kg/injection, schedule: Q01DX005 (ip), vehicle: saline): 95 % of control; T/C (dose: 50.0 mg/kg/injection, schedule: Q01DX005 (ip), vehicle: saline): 95 % of control; T/C (dose: 100.0 mg/kg/injection, schedule: Q01DX005 (ip), vehicle: saline): 108 % of control; T/C (dose: 200.0 mg/kg/injection, schedule: Q01DX005 (ip), vehicle: saline): 105 % of control

For `Cc1ccc(-n2c3nc(=O)n(C)c(=O)c-3nc3ccccc32)cc1C`, which T/C (dose: 100.0 mg/kg/injection, schedule: Q01DX001 (ip), vehicle: Klucel (hydroxypropylcellulose) (HPC)) is on record?
The T/C was 95 % of control.

What about the T/C (dose: 200.0 mg/kg/injection, schedule: Q01DX001 (ip), vehicle: Klucel (hydroxypropylcellulose) (HPC)) of the same compound?
The T/C was 92 % of control.

What does the source list for `O=C1CN(Cc2ccc(Cl)cc2)CC(=O)N2Cc3ccccc3CN12`?
T/C [1]: 102 % of control; T/C [2]: 104 % of control; T/C [3]: 103 % of control

Reference: PubChem BioAssay AID330 (DTP/NCI, 2004)
